Measurements reported in publication PMC11995230 (ACS Medicinal Chemistry Letters, 2025).
Read-outs that look alike come from different tables or passages of the source.

How the values were obtained:
S. pasteurii urease = target: T1, S. pasteurii urease (Sporosarcina pasteurii, UniProt P41020); experiment: Purified S. pasteurii urease inhibition, cresol red assay, no preincubation; format: biochemical, Sporosarcina pasteurii CCM 2056; conditions: native purified urease, slow-binding, read-out: K i, S. pasteurii urease
T1 construct: The native urease, purified from S. pasteurii CCM 2056; made in house; host or cells: Sporosarcina pasteurii CCM 2056 (native, endogenous enzyme, not recombinant)
T1 sequence (P41020 whole entry): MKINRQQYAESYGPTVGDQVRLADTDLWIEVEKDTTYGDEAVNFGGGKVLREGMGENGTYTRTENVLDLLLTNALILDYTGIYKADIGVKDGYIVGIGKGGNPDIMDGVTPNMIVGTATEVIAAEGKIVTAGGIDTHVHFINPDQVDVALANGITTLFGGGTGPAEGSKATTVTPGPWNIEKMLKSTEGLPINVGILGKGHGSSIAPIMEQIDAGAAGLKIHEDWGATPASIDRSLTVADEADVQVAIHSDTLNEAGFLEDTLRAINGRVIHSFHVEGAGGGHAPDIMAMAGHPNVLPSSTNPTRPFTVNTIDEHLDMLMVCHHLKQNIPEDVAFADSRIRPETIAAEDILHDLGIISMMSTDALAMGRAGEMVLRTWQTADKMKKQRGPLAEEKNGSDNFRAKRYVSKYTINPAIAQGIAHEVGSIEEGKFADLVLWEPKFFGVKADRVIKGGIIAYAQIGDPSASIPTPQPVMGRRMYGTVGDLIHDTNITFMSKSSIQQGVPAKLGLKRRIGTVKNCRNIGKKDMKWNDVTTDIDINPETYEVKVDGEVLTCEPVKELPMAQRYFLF
T1 sequence (P41022 whole entry, further chain): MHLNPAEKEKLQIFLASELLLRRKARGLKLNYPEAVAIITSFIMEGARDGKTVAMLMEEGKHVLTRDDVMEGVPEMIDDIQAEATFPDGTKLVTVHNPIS
T1 sequence (P41021 whole entry, further chain): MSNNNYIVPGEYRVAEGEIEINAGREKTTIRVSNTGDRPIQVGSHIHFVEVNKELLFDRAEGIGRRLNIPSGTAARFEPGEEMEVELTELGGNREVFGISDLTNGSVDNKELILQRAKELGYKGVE
Description: compounds. Helicobacter pylori 2CLM belongs to the collection of the Department of Microbiology, Wrocław Medical University, Poland.
Purification of S. pasteurii urease
The native urease from the cells of S. pasteurii was induced and purified in a five-step chromatographic procedure, as previously described.S5 The protein concentration was […]
(§1) Enzymatic activity assays
(§2) Purified urease activity with the addition of the organoselenium compounds studied was measured using cresol red as an indicator of pH changes caused by ammonia produced during ureolysis.S6 The reaction was carried out in 3 mM phosphate buffer containing 30 mM urea, 0.01 % w/v cresol red, purified urease (at a concentration that led to a change in A570 of approximately 1.5 in 90 min) and studied compounds at various concentrations. The reaction was followed by using a TECAN Sunrise spectrometer , and the resulting progress curves were further analyzed to determine the activity and binding mechanism. The rea ction was followed in a system without preincubation of the enzyme with the benzisoselenazolone derivatives (addition of urease initiated the measurement).
The progress curves were fitted to the following equation to calculate the apparent reaction rate constants ( kapp):
P = v ∗ t + 0 s ∗ (1 − e−kapp∗t)
P – product concentration; t – time; v0 – initial state velocity; vs – steady state velocity.
The kapp values were then plotted against the inhibitor concentration [I], and the resulting linear function was used to calculate the dissociation […] of the EI complex (Ki): […]

[1] = tested on: H. pylori Tx30a (ATCC 51932) live cells; experiment: Whole cell ureolysis assay, cresol red; format: cell-based, Helicobacter pylori
Description: as §1
as §2, with “measurement). […]” for “measurement).”
Whole cell ureolysis assays
To measure the inhibitory activity of the compounds studied against whole cells of ureolytic pathogens, the cresol red reaction was carried out using H. pylori cells that were washed twice with 10 mM PBS and used as a biocatalyst.S6 The reaction mixture contained 10 mM PBS, 10 […]
mM urea, bacterial cells, and urease inhibitors. The results were then used to calculate the IC50 values of the organoselenium compounds against the whole cell ureolysis of H. pylori. […]

[2] = tested on: multidrug-resistant clinical isolate H. pylori 2CML; experiment: Antimicrobial activity alone and in combination with antibiotics, checkerboard method; format: cell-based, Helicobacter pylori; conditions: for MIC: Helicobacter pylori
Description: Combination of drugs against H. pylori 2CML
A multidrug-resistant clinical isolate H. pylori 2CML from the collection of the Department of Microbiology, Wrocław Medical University)S7 was used to assess the antimicrobial activity of compounds 1 and 4m, in combination with Clarithromycin, Metronidazole, and Levofloxacin (Sigma-Aldrich). The experiments were carried out on flat-bottom 12-well microtiter plates (Bionovo, Legnica, Poland), arranged in a 48-well panel to use the checkboard method.S8 […]
the selected antibiotic were placed in external wells along the x- and y-axes, respectively. The remaining wells contained varying concentrations of both compounds. Each well consisted of 1 mL of Brain Heart Infusion (Oxoid, Le Pont de Claix , France) broth with 5% foetal calf serum (Gibco, Paisley, Scotland, UK) , a bacterial suspension of 10^7 CFU/mL and the desired concentration of the antimicrobial (s) tested. Following the setup, the plates were incubated for 3 days at 37 °C under microaerophilic conditions (GENbox microaer kits, BioMerrieux, Marcy l’Etoile, France), shaking at 100 rpm.
The minimum inhibitory concentration (MIC) was determined as the lowest concentration in which no microbial growth was observed .
The interactions between antimicrobials were interpreted b y calculation of the fractional inhibitory concentration (FIC) index (FICI), defined as FICI = FICA + FICB (FICA = MIC of substance A in combination / MIC of substance A alone, FICB = MIC of substance B in combination / MIC of substance B alone). FICI ≤0.5 was considered as synergism; >0.5 but ≤1 as additivity, while […] as neutral.

[3] = tested on: Proteus mirabilis pathogenic cells; conditions: previously reported by the authors; reference number not given; read-out: IC50, ureolysis in Proteus mirabilis pathogenic cells; cited from earlier work
[4] = Helicobacter pylori, ATCC51932, read-out: IC50, H. pylori whole-cell ureolysis, live cells of H. pylori Tx30a
[5] = read-out: IC50, H. pylori whole-cell ureolysis, live cells of H. pylori Tx30a
[6] = pair 4m + Clarithromycin, H. pylori 2CML
[7] = pair 4m + Levofloxacin, H. pylori 2CML
[8] = pair 4m + Metronidazole, H. pylori 2CML
[9] = 72 h, H. pylori 2CML, single agent, read-out: MIC Alone
[10] = H. pylori 2CML, single agent, read-out: MIC Alone
[11] = pair Ebselen + Clarithromycin, H. pylori 2CML
[12] = pair Ebselen + Levofloxacin, H. pylori 2CML
[13] = pair Ebselen + Metronidazole, H. pylori 2CML

O=c1c2ccccc2[se]n1Cc1ccccc1F [4a]
Ki (S. pasteurii urease): 0.00361 ± 0.00028 µM
IC50 [1, 4]: 0.171 ± 0.0054 µM

O=c1c2ccccc2[se]n1Cc1cccc(F)c1 [4b]
Ki (S. pasteurii urease): 0.0122 ± 0.0004 µM
IC50 [1, 4]: 0.154 ± 0.0084 µM

O=c1c2ccccc2[se]n1Cc1cccc(C(F)(F)F)c1 [4c]
Ki (S. pasteurii urease): 0.0025 ± 0.00024 µM
IC50 [1, 4]: 0.112 ± 0.0024 µM

O=c1c2ccccc2[se]n1Cc1ccc(F)cc1 [4d]
Ki (S. pasteurii urease): 0.0254 ± 0.0028 µM
IC50 [1, 4]: 0.193 ± 0.0081 µM

O=c1c2ccccc2[se]n1Cc1ccc(C(F)(F)F)cc1 [4e]
Ki (S. pasteurii urease): 0.0021 ± 0.00019 µM
IC50 [1, 4]: 0.17 ± 0.0016 µM

O=c1c2ccccc2[se]n1Cc1ccc(Cl)cc1Cl [4f]
Ki (S. pasteurii urease): 0.000594 ± 3.2e-05 µM
IC50 [1, 4]: 0.345 ± 0.016 µM

O=c1c2ccccc2[se]n1Cc1ccc(F)cc1F [4g]
Ki (S. pasteurii urease): 0.00252 ± 0.00019 µM
IC50 [1, 4]: 0.287 ± 0.018 µM

O=c1c2ccccc2[se]n1Cc1cc(Cl)ccc1Cl [4h]
Ki (S. pasteurii urease): 0.00904 ± 0.00022 µM
IC50 [1, 4]: 0.341 ± 0.023 µM

O=c1c2ccccc2[se]n1Cc1cc(F)ccc1Cl [4i]
Ki (S. pasteurii urease): 0.000543 ± 1.5e-05 µM
IC50 [1, 4]: < 0.1 µM
IC50 [1, 5]: 0.0964 ± 0.0017 µM

O=c1c2ccccc2[se]n1Cc1c(F)cccc1F [4j]
Ki (S. pasteurii urease): 0.00116 ± 0.00014 µM
IC50 [1, 4]: 0.218 ± 0.014 µM

O=c1c2ccccc2[se]n1Cc1ccc(Cl)c(Cl)c1 [4k]
Ki (S. pasteurii urease): 0.0159 ± 0.00065 µM
IC50 [1, 4]: 0.315 ± 0.0047 µM

O=c1c2ccccc2[se]n1Cc1ccc(F)c(F)c1 [4l]
Ki (S. pasteurii urease): 0.00335 ± 0.00065 µM
IC50 [1, 4]: 0.11 ± 0.0045 µM

O=c1c2ccccc2[se]n1Cc1ccc(C(F)(F)F)c(F)c1 [4m]
Ki (S. pasteurii urease): 0.0159 ± 0.0019 µM
IC50 [1, 4]: < 0.1 µM
IC50 [1, 5]: 0.0935 ± 0.0053 µM
MIC ([2]; 72 h, read-out: MIC Alone): 1.17 µg/mL
MIC ([2]; read-out: MIC Alone): 1.17 µg/mL
MIC ([2]; read-out: MIC alone): 3.12 µM
FIC ([2]; pair 4m + Clarithromycin): 0.0625
FICI ([2]; pair 4m + Clarithromycin): 0.562
Interpretation ([2]; pair 4m + Clarithromycin): Additive (>0.5 but ≤1 as additivity)
MIC Combination [2, 6]: 0.0731 µg/mL
MIC in combination [2, 6]: 0.2 µM
FIC ([2]; pair 4m + Levofloxacin): 0.5
FICI ([2]; pair 4m + Levofloxacin): 1
Fold change of MIC (reduction) ([2]; pair 4m + Levofloxacin): ×2↓
Interpretation ([2]; pair 4m + Levofloxacin): Additive (>0.5 but ≤1 as additivity)
MIC Combination [2, 7]: 0.585 µg/mL
FIC ([2]; pair 4m + Metronidazole): 0.125
FICI ([2]; pair 4m + Metronidazole): 0.625
Interpretation ([2]; pair 4m + Metronidazole): Additive (>0.5 but ≤1 as additivity)
MIC Combination [2, 8]: 0.146 µg/mL

O=c1c2ccccc2[se]n1Cc1ccc(Cl)c(C(F)(F)F)c1 [4n]
Ki (S. pasteurii urease): 0.0186 ± 0.00037 µM
IC50 [1, 4]: 0.153 ± 0.0054 µM

O=c1c2ccccc2[se]n1Cc1ccc(F)c(C(F)(F)F)c1 [4o]
Ki (S. pasteurii urease): 0.00299 ± 8.8e-05 µM
IC50 [1, 4]: 0.107 ± 0.0019 µM

O=c1c2ccccc2[se]n1Cc1cc(F)cc(F)c1 [4p]
Ki (S. pasteurii urease): 0.0013 ± 2.7e-05 µM
IC50 [1, 4]: 0.122 ± 0.0041 µM

O=c1c2ccccc2[se]n1Cc1cc(C(F)(F)F)cc(C(F)(F)F)c1 [4q]
Ki (S. pasteurii urease): 0.00332 ± 0.00029 µM
IC50 [1, 4]: 0.208 ± 0.0045 µM

O=c1c2ccccc2[se]n1Cc1ccc(F)c(F)c1F [4r]
Ki (S. pasteurii urease): 0.00294 ± 0.00026 µM
IC50 [1, 4]: 0.179 ± 0.0033 µM

CC[C@H]1OC(=O)[C@H](C)[C@@H](O[C@H]2C[C@@](C)(OC)[C@@H](O)[C@H](C)O2)[C@H](C)[C@@H](O[C@@H]2O[C@H](C)C[C@H](N(C)C)[C@H]2O)[C@](C)(OC)C[C@@H](C)C(=O)[C@H](C)[C@@H](O)[C@]1(C)O [Clarithromycin]
MIC [2, 9]: 16 µg/mL
MIC [2, 10]: 16 µg/mL
FIC ([2]; pair 4m + Clarithromycin): 0.5
Fold change of MIC (reduction) ([2]; pair 4m + Clarithromycin): ×2↓
MIC Combination [2, 6]: 8 µg/mL
FIC ([2]; pair Ebselen + Clarithromycin): 0.5
Fold change of MIC (reduction) ([2]; pair Ebselen + Clarithromycin): ×2↓
MIC Combination [2, 11]: 8 µg/mL

C[C@H]1COc2c(N3CCN(C)CC3)c(F)cc3c(=O)c(C(=O)O)cn1c23 [Levofloxacin]
MIC [2, 9]: 16 µg/mL
MIC [2, 10]: 16 µg/mL
FIC ([2]; pair 4m + Levofloxacin): 0.5
Fold change of MIC (reduction) ([2]; pair 4m + Levofloxacin): ×2↓
MIC Combination [2, 7]: 8 µg/mL
FIC ([2]; pair Ebselen + Levofloxacin): 0.5
Fold change of MIC (reduction) ([2]; pair Ebselen + Levofloxacin): ×2↓
MIC Combination [2, 12]: 8 µg/mL

Cc1ncc([N+](=O)[O-])n1CCO [Metronidazole]
MIC [2, 9]: 64 µg/mL
MIC [2, 10]: 64 µg/mL
FIC ([2]; pair 4m + Metronidazole): 0.5
Fold change of MIC (reduction) ([2]; pair 4m + Metronidazole): ×2↓
MIC Combination [2, 8]: 32 µg/mL
FIC ([2]; pair Ebselen + Metronidazole): 0.5
Fold change of MIC (reduction) ([2]; pair Ebselen + Metronidazole): ×2↓
MIC Combination [2, 13]: 32 µg/mL

O=c1c2ccccc2[se]n1-c1ccccc1 [compound 1, N-phenyl-1,2-benzisoselenazol-3(2H)-one]
IC50 [1, 4]: 0.742 ± 0.041 µM
MIC [2, 9]: 0.857 µg/mL
MIC [2, 10]: 0.857 µg/mL
MIC ([2]; H. pylori 2CML, single agent, read-out: MIC alone): 3.12 µM
FIC ([2]; pair Ebselen + Clarithromycin): 0.5
FICI ([2]; pair Ebselen + Clarithromycin): 1
Interpretation ([2]; pair Ebselen + Clarithromycin): Additive (>0.5 but ≤1 as additivity)
MIC Combination [2, 11]: 0.429 µg/mL
FIC ([2]; pair Ebselen + Levofloxacin): 0.5
FICI ([2]; pair Ebselen + Levofloxacin): 1
Interpretation ([2]; pair Ebselen + Levofloxacin): Additive (>0.5 but ≤1 as additivity)
MIC Combination [2, 12]: 0.429 µg/mL
FIC ([2]; pair Ebselen + Metronidazole): 0.5
FICI ([2]; pair Ebselen + Metronidazole): 1
Interpretation ([2]; pair Ebselen + Metronidazole): Additive (>0.5 but ≤1 as additivity)
MIC Combination [2, 13]: 0.429 µg/mL
IC50 [3]: 0.0292 ± 0.0031 µM

O=c1c2ccccc2[se]n1Cc1ccccc1 [compound 3]
IC50 ([1]; Helicobacter pylori, ATCC51932, live cells of H. pylori Tx30a, read-out: IC50, H. pylori whole-cell ureolysis): 0.151 ± 0.0057 µM

N-(4-chloro-2-fluorophenyl)-1,2-benzisoselenazol-3(2H)-one [compound 2, reference compound]
IC50 ([1]; live cells of H. pylori Tx30a, read-out: IC50, H. pylori whole-cell ureolysis): 0.337 µM
